In patent publication US20230150970A1, “AMINOPYRIMIDINE DERIVATIVES AND THEIR USE AS ARYL HYDROCARBON RECEPTOR MODULATORS” (DONG-A ST CO., LTD., priority 2020, published 2023):
Read-outs that look alike come from different tables or passages of the source.

Assays:
AhR [1] = target: T1, AhR (Homo sapiens, UniProt P35869); assay: In Vitro Assay 4: endogenous AhR activity assay (CYP1A1 and CYP1B1 mRNA, qRT-PCR, HepG2 cells)
T1 sequence (P35869 11-848): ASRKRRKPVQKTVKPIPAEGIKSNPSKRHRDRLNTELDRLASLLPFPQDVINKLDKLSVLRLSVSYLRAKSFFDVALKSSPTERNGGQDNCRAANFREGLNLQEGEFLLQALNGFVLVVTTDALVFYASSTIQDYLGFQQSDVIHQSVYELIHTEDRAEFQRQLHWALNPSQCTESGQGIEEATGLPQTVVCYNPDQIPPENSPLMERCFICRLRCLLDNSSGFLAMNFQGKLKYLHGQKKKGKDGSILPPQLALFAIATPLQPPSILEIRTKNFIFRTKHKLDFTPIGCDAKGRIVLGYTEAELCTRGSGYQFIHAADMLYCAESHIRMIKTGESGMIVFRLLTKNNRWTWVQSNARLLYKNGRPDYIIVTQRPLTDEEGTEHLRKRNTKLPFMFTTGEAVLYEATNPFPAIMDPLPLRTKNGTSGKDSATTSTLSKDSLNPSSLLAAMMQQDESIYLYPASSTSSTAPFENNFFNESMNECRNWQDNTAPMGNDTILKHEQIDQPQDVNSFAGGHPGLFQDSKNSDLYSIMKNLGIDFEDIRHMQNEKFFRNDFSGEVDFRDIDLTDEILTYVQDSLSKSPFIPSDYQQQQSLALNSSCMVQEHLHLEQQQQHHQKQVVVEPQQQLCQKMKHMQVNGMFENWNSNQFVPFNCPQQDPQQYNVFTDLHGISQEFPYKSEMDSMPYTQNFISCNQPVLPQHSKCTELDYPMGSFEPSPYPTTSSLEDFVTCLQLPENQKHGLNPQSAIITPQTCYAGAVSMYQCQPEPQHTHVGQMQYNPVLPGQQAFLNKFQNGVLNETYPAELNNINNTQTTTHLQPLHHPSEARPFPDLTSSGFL

AhR [2] = target: T1, AhR; assay: In Vitro Assay 3: XRE-luciferase reporter assay, agonism in human cell line (HepG2); type: cell-based; set-up: endogenous in cells; host or cells: HepG2; conditions: HepG2, tryptophan free medium, 6 hours, no agonist, read-out: Assay 3: AhR-Luc Human Agonism (EC50)
Method: In Vitro Assay 3: Agonism in Human Cell Line
HepG2 (human hepatoma cell line) cells co-transfected with XRE-Luc and Nano-Luc plasmids were plated in tryptophan free medium containing 1% of dialyzed fetal bovine serum and incubated overnight at 37° C. in a CO2 incubator. After 24 hours, cells were treated for 6 hours with test compounds or not. […] As a positive control, cells were incubated with TCDD.

AhR [3] = target: T2, AhR (Mus musculus, UniProt P30561); assay: In Vitro Assay 2: XRE-luciferase reporter assay, antagonism in mouse cell line (Hepa1c1c7); type: cell-based; conditions: 6 hours, read-out: Assay 2: AhR-Luc Mouse Antagonism (IC50)
T2 sequence (P30561 1-848): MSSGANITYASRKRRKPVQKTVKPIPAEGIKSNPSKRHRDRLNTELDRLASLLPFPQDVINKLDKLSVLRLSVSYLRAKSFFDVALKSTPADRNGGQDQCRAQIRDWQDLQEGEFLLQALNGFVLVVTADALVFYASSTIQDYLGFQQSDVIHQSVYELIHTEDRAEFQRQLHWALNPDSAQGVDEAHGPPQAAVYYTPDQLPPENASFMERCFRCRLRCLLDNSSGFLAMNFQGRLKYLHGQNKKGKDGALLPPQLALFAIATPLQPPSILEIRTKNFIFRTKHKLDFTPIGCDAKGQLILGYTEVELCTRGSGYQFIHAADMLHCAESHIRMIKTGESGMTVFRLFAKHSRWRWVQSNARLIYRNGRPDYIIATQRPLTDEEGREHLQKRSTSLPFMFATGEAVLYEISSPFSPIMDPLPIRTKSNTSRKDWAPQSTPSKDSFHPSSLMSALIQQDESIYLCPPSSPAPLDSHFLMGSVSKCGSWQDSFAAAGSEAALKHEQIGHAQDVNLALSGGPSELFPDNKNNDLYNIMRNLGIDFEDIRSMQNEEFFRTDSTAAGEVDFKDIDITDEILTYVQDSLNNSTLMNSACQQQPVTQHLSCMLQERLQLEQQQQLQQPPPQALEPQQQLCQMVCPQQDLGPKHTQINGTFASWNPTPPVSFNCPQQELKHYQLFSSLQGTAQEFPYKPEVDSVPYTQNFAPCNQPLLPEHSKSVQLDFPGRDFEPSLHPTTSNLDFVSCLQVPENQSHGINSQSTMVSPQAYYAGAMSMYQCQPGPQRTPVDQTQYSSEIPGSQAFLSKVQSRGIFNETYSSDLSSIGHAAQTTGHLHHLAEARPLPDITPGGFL
Method: In Vitro Assay 2: Antagonism in Mouse Cell Line
Hepa1c1c7 (murine liver cancer cell line) cells co-transfected with XRE-Luc and Nano-Luc plasmids were plated in complete medium and incubated overnight at 37° C. in a CO2 incubator. Following incubation, cells were treated with AhR activating ligands such as kynurenic acid, kynurenine (#) with or without test compounds for 6 hours.

AhR [4] = target: T1, AhR; assay: In Vitro Assay 1: XRE-luciferase reporter assay, antagonism in human cell line (HepG2)
[5] = HepG2, read-out: CYP1A1 (% Inhibition)
[6] = HepG2, read-out: CYP1B1 (% Inhibition)
[7] = values marked #: AhR activating ligand kynurenine
[8] = Assay 1: AhR-Luc Human Antagonism (IC50, nM), values marked *: kynurenine 50 μM, 6 hours
[9] = Assay 1: AhR-Luc Human Antagonism (IC50, nM), unmarked values: kynurenine 200 μM, 6 hours
[10] = unmarked values: AhR activating ligand kynurenic acid

| Compound | EC50 (AhR [2]; number of the cell) [nM] | IC50 (AhR [3]; [7]) [nM] | IC50 (AhR [4]; [8]) [nM] | EC50 (AhR [2]; class in brackets of the cell) [nM] | IC50 (AhR [4]; read-out: Assay 1: AhR-Luc Human Antagonism (IC50), values marked *: kynurenine 50 μM, 6 hours) [nM] | IC50 (AhR [4]; read-out: Assay 1: AhR-Luc Human Antagonism (IC50), unmarked values: kynurenine 200 μM, 6 hours) [nM] | inhibition at 0.123 µM (AhR [1]; [5]) [%] | inhibition at 0.123 µM (AhR [1]; [6]) [%] | IC50 (AhR [4]; [9]) [nM] | IC50 (AhR [3]; [10]) [nM] |
| --- | --- | --- | --- | --- | --- | --- | --- | --- | --- | --- |
| CC[C@H](CO)Nc1cc(-c2ccc(Cl)cc2)nc(-c2cccnc2)n1 [Example 1, (R)-2-((6-(4-chlorophenyl)-2-(pyridin-3-yl)pyrimidin-4-yl)amino)butan-1-ol] | 12.6 | 100 to 1000 | 10 to 100 | – | – | – | 60 | 92 | – | – |
| CN1CCN(C2CCN(c3cc(-c4ccc(Cl)cc4)nc(-c4cccnc4)n3)CC2)CC1 [Example 92, 4-(4-chlorophenyl)-6-(4-(4-methylpiperazin-1-yl)piperidin-1-yl)-2-(pyridin-3-yl)pyrimidine] | > 30000 | 100 to 1000 | 10 to 100 | > 10000 | – | – | – | – | – | – |
| O=C1CN(c2cc(-c3ccc(Cl)cc3)nc(-c3cccnc3)n2)CCN1 [Example 94, 4-(6-(4-chlorophenyl)-2-(pyridin-3-yl)pyrimidin-4-yl)piperazin-2-one] | > 30000 | 100 to 1000 | 10 to 100 | > 10000 | – | – | 63.1 | 92.1 | – | – |
| CN1CCN(c2cc(-c3ccc(Cl)cc3)nc(-c3cccnc3)n2)CC1 [Example 105, 4-(4-chlorophenyl)-6-(4-methylpiperazin-1-yl)-2-(pyridin-3-yl)pyrimidine] | > 30000 | 100 to 1000 | < 10 | > 10000 | – | – | 59.2 | 88.4 | – | – |
| O[C@H]1CCN(c2cc(-c3ccc(Cl)cc3)nc(-c3cccnc3)n2)C1 [Example 137, (S)-1-(6-(4-chlorophenyl)-2-(pyridin-3-yl)pyrimidin-4-yl)pyrrolidin-3-ol] | > 30000 | – | – | > 10000 | – | – | 91.6 | 97.7 | < 10 | < 10 |
| OCC1CCN(c2cc(-c3ccc(C(F)(F)F)cc3)nc(-c3cccnc3)n2)CC1 [Example 226, (1-(2-(pyridin-3-yl)-6-(4-(trifluoromethyl)phenyl)pyrimidin-4-yl)piperidin-4-yl)methanol] | > 30000 | 10 to 100 | – | > 10000 | – | – | 108 | 101 | < 10 | – |
| CC(=O)N1CCCN(c2cc(-c3ccc(Cl)cc3)nc(-c3cccnc3)n2)C1 [Example 232, 1-(3-(6-(4-chlorophenyl)-2-(pyridin-3-yl)pyrimidin-4-yl)tetrahydropyrimidin-1 (2H)-yl)ethan-1-one] | – | > 1000 | < 10 | – | – | – | 100 | 99.8 | – | – |
| OCC1CN(c2cc(-c3ccc(Cl)cc3)nc(-c3cccnc3)n2)CC1O (stereo not shown) [Example 236, 1-(6-(4-chlorophenyl)-2-(pyridin-3-yl)pyrimidin-4-yl)-4-(hydroxymethyl)pyrrolidin-3-ol] | 40.1 | 100 to 1000 | < 10 | – | – | – | – | – | – | – |
| CC(=O)N[C@@H]1CN(c2cc(-c3ccc(Cl)cc3)nc(-c3cccnc3)n2)C[C@@H]1O [Example 243, N-((3R,4S)-1-(6-(4-chlorophenyl)-2-(pyridin-3-yl)pyrimidin-4-yl)-4-hydroxypyrrolidin-3-yl)acetamide] | – | 10 to 100 | – | – | – | – | 89.7 | – | < 10 | – |
| OC[C@H]1CN(c2cc(-c3ccc(C(F)(F)F)cc3)nc(-c3cccnc3)n2)C[C@@H]1O [Example 258, (3R,4R)-4-(hydroxymethyl)-1-(2-(pyridin-3-yl)-6-(4-(trifluoromethyl)phenyl)pyrimidin-4-yl)pyrrolidin-3-ol] | – | – | – | – | – | – | 101 | – | < 10 | < 10 |

Further lines, with some results ahead:

| EC50 (AhR [2]; number of the cell) [nM] | IC50 (AhR [3]; [7]) [nM] | IC50 (AhR [4]; [8]) [nM] | EC50 (AhR [2]; class in brackets of the cell) [nM] | IC50 (AhR [4]; read-out: Assay 1: AhR-Luc Human Antagonism (IC50), values marked *: kynurenine 50 μM, 6 hours) [nM] | IC50 (AhR [4]; read-out: Assay 1: AhR-Luc Human Antagonism (IC50), unmarked values: kynurenine 200 μM, 6 hours) [nM] | Compound | inhibition at 0.123 µM (AhR [1]; [5]) [%] | inhibition at 0.123 µM (AhR [1]; [6]) [%] | IC50 (AhR [4]; [9]) [nM] | IC50 (AhR [3]; [10]) [nM] |
| --- | --- | --- | --- | --- | --- | --- | --- | --- | --- | --- |
| > 30000 | 10 to 100 | – | > 10000 | – | – | CS(=O)(=O)N1CCN(c2cc(-c3ccc(Cl)cc3)nc(-c3cccnc3)n2)CC1 [Example 107, 4-(4-chlorophenyl)-6-(4-(methylsulfonyl)piperazin-1-yl)-2-(pyridin-3-yl)pyrimidine] | – | – | < 10 | – |
| > 30000 | 100 to 1000 | < 10 | > 10000 | – | – | CC(=O)NC1CCN(c2cc(-c3ccc(Cl)cc3)nc(-c3cccnc3)n2)C1 (stereo not shown) [Example 143, N-(1-(6-(4-chlorophenyl)-2-(pyridin-3-yl)pyrimidin-4-yl)pyrrolidin-3-yl)acetamide] | – | – | – | – |
| > 30000 | 10 to 100 | < 10 | > 10000 | – | – | CC(=O)N1CCC(CNc2cc(-c3ccc(Cl)cc3)nc(-c3cccnc3)n2)CC1 [Example 154, 1-(4-(((6-(4-chlorophenyl)-2-(pyridin-3-yl)pyrimidin-4-yl)amino)methyl)piperidin-1-yl)ethan-1-one] | – | – | – | – |
| > 30000 | 100 to 1000 | < 10 | > 10000 | – | – | O[C@H]1CC[C@@H](Nc2cc(-c3ccc(Cl)cc3)nc(-c3cccnc3)n2)C1 [Example 162, (1S,3R)-3-((6-(4-chlorophenyl)-2-(pyridin-3-yl)pyrimidin-4-yl)amino)cyclopentan-1-ol] | – | – | – | – |
| > 30000 | – | – | > 10000 | – | – | OC[C@@H]1CCN(c2cc(-c3ccc(Cl)cc3)nc(-c3cccnc3)n2)C[C@H]1F [Example 282, ((3S,4S)-1-(6-(4-chlorophenyl)-2-(pyridin-3-yl)pyrimidin-4-yl)-3-fluoropiperidin-4-yl)methanol] | – | – | < 10 | 100 to 1000 |
| > 30000 | – | – | > 10000 | – | – | O[C@H]1CN(c2cc(-c3ccc(C(F)(F)F)cc3)nc(-c3cccnc3)n2)C[C@@H]1O [Example 283, (3S,4S)-1-(2-(pyridin-3-yl)-6-(4-(trifluoromethyl)phenyl)pyrimidin-4-yl)pyrrolidine-3,4-diol] | – | – | < 10 | 10 to 100 |
| – | 10 to 100 | – | – | 10 to 100 | – | (3R,4R)-1-(6-(4-chlorophenyl)-2-(pyridin-3-yl)pyrimidin-4-yl)pyrrolidine-3,4-diol [Example 230] | – | – | – | – |
| > 30000 | 10 to 100 | – | > 10000 | – | < 10 | (3R,4S)-1-(6-(4-chlorophenyl)-2-(pyridin-3-yl)pyrimidin-4-yl)pyrrolidine-3,4-diol [Example 231] | – | – | – | – |
